# Assays:
# [1] = system: TGF-β; assay: AlphaScreen SureFire SMAD3 (p-Ser423/425) assay, TGF-β-stimulated (TGF-β pSMAD (MPC-11)); format: cell-based; conditions: p-SMAD-3 (Ser423/425)
# Excerpt: (§1) Example 2: AlphaScreen® SureFire® SMAD3 (p-Ser423/425) Assay
# (§2) The p-SMAD-3 (Ser423/425) SureFire® assay has been designed to measure the phosphorylation of endogenous cellular p-SMAD-3 (Ser423/425) in cell lysates and is a system for the screening of both modulators of receptor activation (e.g. agonists and antagonists) as well as agents acting intracellularly, such as small molecule inhibitors of upstream events. The assay will measure p-SMAD-3 (Ser423/425) activation by either cloned or endogenous receptors, and can be applied to primary cells.
# (§3) P-SMAD-3 (Ser423/425) SureFire® Assay Protocols
# (§4) 96-well Assay Protocol for 293FT and RMS13 adherent cells can be carried out manually or in high throughput with liquid handling robots.
# (§5) The cells (80 μL of cells for 96 well plates) were plated in collagen coated tissue culture plates in RPMI or FreeStyle medium (Invitrogen) and incubated overnight. For manual analysis, 6 plates for GDF8, 6 plates for TGFβ, and optionally 6 plates for Alk5ca(ALK5 constitutively active) were used.
# (§6) The compound dilution plates were prepared as follows: 12 μL of DMSO was transferred into first column of 96-well plate, and 16 μL of DMSO was transferred into columns 2-12 of the 96-well plate. 12 μL of compound solution was transferred into first column of the DMSO-containing 96-well plate. Three-fold dilution was performed up to column 10 of the DMSO-containing 96-well plate.
# (§7) The plate containing cells were treated with compounds for about 10 minutes, and then ligand was added. GDF8 or TGFb was added to plates to stimulate. 293FL cells were stimulated for 90 minutes at 37° C.; and RMS13 cells were stimulated for 60 minutes at 37° C. The medium was then removed from the cells, and 1× Lysis Buffer (about 25 μL) was added and the plate was gently agitated on plate shaker for 5-10 minutes.
# (§8) The lysate (5 μL) was then placed into 384-well shallow plates avoiding the generation of bubbles. To this, the Reaction Buffer+Activation Buffer+AlphaScreen® Acceptor beads mixture (5 μL) was added. The plate was sealed with adhesive cover and shielded from light (e.g., with metal foil), and agitated gently on plate shaker for 2 hours at room temperature.
# (§9) Dilution buffer+AlphaScreen® Donor beads (2 μL) was then added, and the plate was intubated on the plate shaker for an additional 1½ hours. After completion, the plate was read on Synergy-4 or Enspire plate reader, using AlphaScreen® pSMAD3® settings.
# (§10) Representative results for inhibition of GDF8 (data=GDF pSMAD (MPC11) (μM)) and TGF-β (data=TGF-β pSMAD (MPC-11) (μM)) signaling are shown in Table 1: […]
# [2] = system: GDF8; assay: AlphaScreen SureFire SMAD3 (p-Ser423/425) assay, GDF8-stimulated (GDF pSMAD (MPC11)); format: cell-based; conditions: p-SMAD-3 (Ser423/425)
# Excerpt: as §1, §2, §3, §4, §5, §6, §7, §8, §9, §10
# [3] = Mus musculus, MPC-11, inhibition of TGF-β signaling
# [4] = Mus musculus, MPC-11, inhibition of GDF8 signaling
IC50 ([1]; inhibition of TGF-β signaling) [nM],IC50 ([2]; inhibition of GDF8 signaling) [nM],"IC50 [1, 3] [nM]","IC50 [2, 4] [nM]",SMILES
–,–,1000,126,"Cc1ccc(F)cc1-c1nccc(Nc2ccc3[nH]ncc3c2)n1 [Compound 26, N-(2-(5-fluoro-2-methylphenyl)pyrimidin-4-yl)-1H-indazol-5-amine]"
326,91.1,–,–,"Fc1ccc(-c2nccc(Nc3ccc4[nH]ncc4c3)n2)cc1F [Compound 25, N-(2-(3,4-Difluorophenyl)pyrimidin-4-yl)-1H-indazol-5-amine]"
–,–,2170,220,"Fc1ccccc1-c1nccc(Nc2ccc3[nH]ncc3c2)n1 [Compound 17, N-(2-(2-Fluorophenyl)pyrimidin-4-yl)-1H-indazol-5-amine]"
–,–,1360,154,"Fc1cccc(-c2nccc(Nc3ccc4[nH]ncc4c3)n2)c1 [Compound 18, N-(2-(3-Fluorophenyl)pyrimidin-4-yl)-1H-indazol-5-amine]"
–,–,3260,459,"Fc1cnc(-c2ccccc2)nc1Nc1ccc2[nH]ncc2c1 [Compound 37, N-(5-Fluoro-2-phenylpyrimidin-4-yl)-1H-indazol-5-amine]"
–,–,1320,257,"Fc1cc2[nH]ncc2cc1Nc1ccnc(-c2ccccc2F)n1 [Compound 23, 6-Fluoro-N-(2-(2-fluorophenyl)pyrimidin-4-yl)-1H-indazol-5-amine]"
–,–,203,25.1,"Fc1ccc(-c2nccc(Nc3ccc4[nH]ncc4c3)n2)cc1 [Compound 33, N-(2-(4-Fluorophenyl)pyrimidin-4-yl)-1H-indazol-5-amine]"
–,–,2000,258,"Fc1ccc(-c2ncc(F)c(Nc3ccc4[nH]ncc4c3)n2)cc1F [Compound 35, N-(2-(3,4-Difluorophenyl)-5-fluoropyrimidin-4-yl)-1H-indazol-5-amine]"
–,–,2340,427,"Cc1ccccc1-c1ncc(F)c(Nc2ccc3[nH]ncc3c2)n1 [Compound 34, N-(5-Fluoro-2-(methylphenyl)pyrimidin-4-yl)-1H-indazol-5-amine]"
–,–,3990,846,"Fc1ccccc1-c1ncc(F)c(Nc2ccc3[nH]ncc3c2)n1 [Compound 24, N-(5-Fluoro-2-(2-fluorophenyl)pyrimidin-4-yl)-1H-indazol-5-amine]"
–,–,1840,209,"Nc1ccccc1-c1nccc(Nc2ccc3[nH]ncc3c2)n1 [Compound 44, N-(2-(2-Aminophenyl)pyrimidin-4-yl)-1H-indazol-5-amine]"
–,–,3060,555,"Fc1cccc(-c2ncc(F)c(Nc3ccc4[nH]ncc4c3)n2)c1 [Compound 36, N-(5-Fluoro-2-(3-fluorophenyl)pyrimidin-4-yl)-1H-indazol-5-amine]"
–,–,842,193,"Cc1ccc(C)c(-c2nccc(Nc3ccc4[nH]ncc4c3)n2)c1 [Compound 30, N-(2-(2,5-Dimethylphenyl)pyrimidin-4-yl)-1H-indazol-5-amine]"
–,–,1460,336,"Cc1cccc(-c2nc(Nc3ccc4[nH]ncc4c3)c3cc[nH]c3n2)c1 [Compound 9, N-(1H-Indazol-5-yl)-2-(3-methylphenyl)-7H-pyrrolo[2,3-d]pyrimidin-4-amine]"
–,–,53.3,7.6,"Cc1cc(F)ccc1-c1nccc(Nc2ccc3[nH]ncc3c2)n1 [Compound 42, N-(2-(4-Fluoro-2-methylphenyl)pyrimidin-4-yl)-1H-indazol-5-amine]"

# Continued, compound first:
SMILES,IC50 ([1]; inhibition of TGF-β signaling) [nM],IC50 ([2]; inhibition of GDF8 signaling) [nM],"IC50 [1, 3] [nM]","IC50 [2, 4] [nM]"
"Cc1cc(-c2ncc(C)c(Nc3cc4cn[nH]c4cc3C)n2)ccc1F [Compound 56, N-(2-(4-Fluoro-3-methylphenyl)-5-methylpyrimidin-4-yl)-6-methyl-1H-indazol-5-amine]",281,184,–,–
"Cc1cc(-c2ncc(C)c(Nc3cnc4[nH]ncc4c3)n2)ccc1F [Compound 49, N-(2-(4-Fluoro-3-methylphenyl)-5-methylpyrimidin-4-yl)-1H-pyrazolo[3,4-b]pyridin-5-amine]",–,–,349,545
"Cc1cnc(-c2ccc(F)c(F)c2)nc1Nc1cc2cn[nH]c2cc1F [Compound 60, 6-Fluoro-N-(2-(3,4-difluorophenyl)-5-methylpyrimidin-4-yl)-1H-indazol-5-amine]",–,–,1040,454
"N#Cc1cccc(-c2nccc(Nc3ccc4[nH]ncc4c3)n2)c1 [Compound 29, N-(2-(3-Cyanophenyl)pyrimidin-4-yl)-1H-indazol-5-amine]",–,–,85.3,21.5
"COc1cc2nccc(Nc3ccnc(-c4ccc(F)cc4C)n3)c2cc1OC [Compound 47, N-(2-(4-Fluoro-2-methylphenyl)pyrimidin-4-yl)-6,7-dimethoxyquinolin-4-amine]",–,–,44.4,34.4
"Cc1cnc(-c2cccc(F)c2)nc1Nc1cnc2[nH]ncc2c1 [Compound 13, N-(2-(3-Fluorophenyl)-5-methylpyrimidin-4-yl)-1H-pyrazolo[3,4-b]pyridin-5-amine]",–,–,2720,883
"Cc1cccc(-c2ncc(C)c(Nc3cc4cn[nH]c4cc3C)n2)c1 [Compound 52, N-(2-(3-Methylphenyl)-5-methylpyrimidin-4-yl)-6-methyl-1H-indazol-5-amine]",–,–,322,234
"Cc1cccc(-c2ncc(C)c(Nc3cc4cn[nH]c4cc3F)n2)c1 [Compound 58, 6-Fluoro-N-(2-(3-methylphenyl)-5-methylpyrimidin-4-yl)-1H-indazol-5-amine]",–,–,808,394
"Cc1cc2[nH]ncc2cc1Nc1nc(-c2ccc(F)cc2)ncc1C [Compound 53, N-(2-(4-Fluorophenyl)-5-methylpyrimidin-4-yl)-6-methyl-1H-indazol-5-amine]",–,–,543,540
"Cc1cccc(-c2ncc(C)c(Nc3cnc4[nH]ncc4c3)n2)c1 [Compound 16, N-(2-(3-Methylphenyl)-5-methylpyrimidin-4-yl)-1H-pyrazolo[3,4-b]pyridin-5-amine]",–,–,410,289
"Fc1ccc(-c2nccc(Nc3cnc4[nH]ncc4c3)n2)cc1 [Compound 4, N-(2-(4-Fluorophenyl)pyrimidin-4-yl)-1H-pyrazolo[3,4-b]pyridin-5-amine]",–,–,840,171
"Cc1cc2[nH]ncc2cc1Nc1nc(-c2ccc(F)c(F)c2)ncc1C [Compound 54, N-(2-(3,4-Difluorophenyl)-5-methylpyrimidin-4-yl)-6-methyl-1H-indazol-5-amine]",–,–,662,492
"Cc1cnc(-c2ccc(F)c(F)c2)nc1Nc1cnc2[nH]ncc2c1 [Compound 15, N-(2-(3,4-Difluorophenyl)-5-methylpyrimidin-4-yl)-1H-pyrazolo[3,4-b]pyridin-5-amine]",–,–,876,685
"Cc1ccc(C)c(-c2nccc(Nc3ccc4c(cnn4C(=O)CN(C)C)c3)n2)c1 [Compound 1, 2-(Dimethylamino)-1-(5-((2-(2,5-dimethylphenyl)pyrimidin-4-yl)amino)-1H-indazol-1-yl)ethan-1-one]",–,–,560,47.2

# From patent publication US11021468B2, “TGF-ß inhibitors” (Rigel Pharmaceuticals, Inc., priority 2015, dated 2021)
